In ChEMBL document CHEMBL1137316, “Discovery of S-(2-guanidylethyl)-isothiourea (VUF 8430) as a potent nonimidazole histamine H4 receptor agonist” (J Med Chem, 2006):
Each block holds one compound with its values, some of them ahead of it. Activity calls are given as the source filed them. The rule behind the calls is not given here.

What was measured:
[1] = target: Histamine H2 receptor (Homo sapiens) (UniProt P25021); assay: Agonist activity at human histamine H2 receptor; format: functional
Histamine H3 receptor [2] = target: T1, Histamine H3 receptor (Homo sapiens, UniProt Q9Y5N1); assay: Agonist activity at human histamine H3 receptor in SK-N-MC cells assessed as inhibition of forskolin-induced cAMP-mediated CRE-beta galactosidase activity; format: functional, cell-based
T1 sequence (Q9Y5N1 whole entry): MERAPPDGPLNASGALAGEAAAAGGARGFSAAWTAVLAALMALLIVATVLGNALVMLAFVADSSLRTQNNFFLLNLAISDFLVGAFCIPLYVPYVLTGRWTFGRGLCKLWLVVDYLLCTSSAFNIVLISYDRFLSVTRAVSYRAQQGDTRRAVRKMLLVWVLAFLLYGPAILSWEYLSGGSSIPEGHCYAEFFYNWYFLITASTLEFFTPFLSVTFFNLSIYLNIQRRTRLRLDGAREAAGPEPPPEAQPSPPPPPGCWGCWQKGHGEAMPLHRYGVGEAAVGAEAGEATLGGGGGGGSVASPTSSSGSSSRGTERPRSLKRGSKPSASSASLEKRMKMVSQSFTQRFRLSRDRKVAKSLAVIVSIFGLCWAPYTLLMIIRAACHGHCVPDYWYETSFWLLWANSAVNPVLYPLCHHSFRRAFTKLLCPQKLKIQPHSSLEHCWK

Histamine H3 receptor [3] = target: T1, Histamine H3 receptor; assay: Displacement of [3H]Nalpha-methylhistamine from human histamine H3 receptor expressed in SK-N-MC cells; format: cell-based
[4] = target: Histamine H2 receptor (Cavia porcellus) (UniProt P47747); assay: Activity at human histamine H2 receptor in guinea pig right atrium; format: functional, tissue-based; settings: Cardiac atrium
Chain of Histamine H2 receptor (Cavia porcellus) (P47747 whole entry): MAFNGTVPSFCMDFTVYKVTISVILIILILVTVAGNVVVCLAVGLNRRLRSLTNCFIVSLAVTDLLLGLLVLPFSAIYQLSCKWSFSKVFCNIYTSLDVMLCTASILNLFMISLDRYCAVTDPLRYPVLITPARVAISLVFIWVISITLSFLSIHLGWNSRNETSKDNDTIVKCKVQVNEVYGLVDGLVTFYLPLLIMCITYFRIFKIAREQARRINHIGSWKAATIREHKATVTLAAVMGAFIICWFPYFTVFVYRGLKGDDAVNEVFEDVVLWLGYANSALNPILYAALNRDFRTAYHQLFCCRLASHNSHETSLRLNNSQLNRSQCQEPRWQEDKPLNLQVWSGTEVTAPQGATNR

[5] = target: Histamine H1 receptor (Homo sapiens) (UniProt P35367); assay: Agonist activity at human histamine H1 receptor at 100 uM; format: functional
Chain of Histamine H1 receptor (Homo sapiens) (P35367 whole entry): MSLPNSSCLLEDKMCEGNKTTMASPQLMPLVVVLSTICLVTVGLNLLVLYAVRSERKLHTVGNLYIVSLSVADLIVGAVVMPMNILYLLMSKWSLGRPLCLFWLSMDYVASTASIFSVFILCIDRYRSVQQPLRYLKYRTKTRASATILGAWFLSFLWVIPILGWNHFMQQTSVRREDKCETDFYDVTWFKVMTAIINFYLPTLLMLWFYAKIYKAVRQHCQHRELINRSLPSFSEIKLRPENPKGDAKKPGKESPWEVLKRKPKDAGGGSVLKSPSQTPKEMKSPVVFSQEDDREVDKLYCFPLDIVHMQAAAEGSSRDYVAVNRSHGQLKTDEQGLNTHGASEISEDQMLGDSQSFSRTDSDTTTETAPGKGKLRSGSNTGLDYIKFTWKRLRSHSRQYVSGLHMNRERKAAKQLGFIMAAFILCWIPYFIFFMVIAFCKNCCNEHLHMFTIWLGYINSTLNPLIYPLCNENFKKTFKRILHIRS

Histamine H4 receptor = Histamine H4 receptor (Homo sapiens, UniProt Q9H3N8); assay: Displacement of [3H]histamine from human histamine H4 receptor

Chain of Histamine H2 receptor (Homo sapiens) (P25021 whole entry): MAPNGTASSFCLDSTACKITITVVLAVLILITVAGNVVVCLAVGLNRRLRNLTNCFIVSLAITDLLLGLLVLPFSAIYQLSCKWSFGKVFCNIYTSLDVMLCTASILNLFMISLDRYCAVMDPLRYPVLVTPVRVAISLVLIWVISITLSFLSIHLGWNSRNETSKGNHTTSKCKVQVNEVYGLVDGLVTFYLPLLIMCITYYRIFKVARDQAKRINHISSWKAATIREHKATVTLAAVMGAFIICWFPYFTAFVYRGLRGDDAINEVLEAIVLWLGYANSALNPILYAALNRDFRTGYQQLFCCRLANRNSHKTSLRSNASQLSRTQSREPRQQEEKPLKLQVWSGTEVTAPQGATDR

SMILES: N=C(N)NCCNC(=N)N
Ki (Histamine H4 receptor): 0.398 µM

SMILES: N=C(N)NCCCCCCSC(=N)N
Ki (Histamine H4 receptor): 3.98 µM

SMILES: N=C(N)NCCCCSC(=N)N
Ki (Histamine H4 receptor): 3.16 µM

SMILES: N=C(N)SCCSC(=N)N
Ki (Histamine H4 receptor): 0.251 µM

More lines, now with the values ahead:

Activity [1]: 50%
Intrinsic activity (Histamine H3 receptor [2]): 1
Ki (Histamine H3 receptor [3]): 1 µM
Intrinsic activity [4]: 0.4
pD2 [4]: 3.8
Activity [5]: inactive
SMILES: N=C(N)NCCSC(=N)N

Ki (Histamine H4 receptor): 7.94 µM
SMILES: N=C(N)NCCCSC(=N)N
